Data from EP3270157B1, “SCREENING ASSAY FOR SWEETNESS” (Firmenich SA, priority 2016, dated 2018).
Read-outs that look alike come from different tables or passages of the source.

Biological target: T1, T1R2/T1R3 receptor (Homo sapiens, UniProt Q7RTX0+Q8TE23)
T1 sequence (Q8TE23 20-839): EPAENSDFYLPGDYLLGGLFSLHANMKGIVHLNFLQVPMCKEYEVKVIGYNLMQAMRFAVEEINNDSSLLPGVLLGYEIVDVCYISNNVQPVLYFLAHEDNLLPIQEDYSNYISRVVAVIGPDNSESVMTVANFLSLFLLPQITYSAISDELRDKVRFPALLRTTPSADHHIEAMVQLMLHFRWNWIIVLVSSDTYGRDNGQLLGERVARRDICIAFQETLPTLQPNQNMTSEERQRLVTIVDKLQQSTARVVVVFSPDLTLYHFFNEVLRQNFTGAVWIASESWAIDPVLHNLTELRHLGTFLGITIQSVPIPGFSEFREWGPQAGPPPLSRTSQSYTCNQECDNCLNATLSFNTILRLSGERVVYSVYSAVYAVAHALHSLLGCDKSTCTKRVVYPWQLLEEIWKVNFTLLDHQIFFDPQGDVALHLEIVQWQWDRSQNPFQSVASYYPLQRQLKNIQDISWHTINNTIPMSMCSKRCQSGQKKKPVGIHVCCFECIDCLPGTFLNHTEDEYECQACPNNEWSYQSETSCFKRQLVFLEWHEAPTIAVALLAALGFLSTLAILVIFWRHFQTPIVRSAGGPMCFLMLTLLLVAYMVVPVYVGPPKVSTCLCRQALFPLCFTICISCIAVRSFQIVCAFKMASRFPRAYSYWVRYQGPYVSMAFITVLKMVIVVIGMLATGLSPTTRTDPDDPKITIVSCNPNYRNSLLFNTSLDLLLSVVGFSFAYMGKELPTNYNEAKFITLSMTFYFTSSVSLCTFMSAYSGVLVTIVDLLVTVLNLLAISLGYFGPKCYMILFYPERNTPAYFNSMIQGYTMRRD
T1 sequence (Q7RTX0 21-852): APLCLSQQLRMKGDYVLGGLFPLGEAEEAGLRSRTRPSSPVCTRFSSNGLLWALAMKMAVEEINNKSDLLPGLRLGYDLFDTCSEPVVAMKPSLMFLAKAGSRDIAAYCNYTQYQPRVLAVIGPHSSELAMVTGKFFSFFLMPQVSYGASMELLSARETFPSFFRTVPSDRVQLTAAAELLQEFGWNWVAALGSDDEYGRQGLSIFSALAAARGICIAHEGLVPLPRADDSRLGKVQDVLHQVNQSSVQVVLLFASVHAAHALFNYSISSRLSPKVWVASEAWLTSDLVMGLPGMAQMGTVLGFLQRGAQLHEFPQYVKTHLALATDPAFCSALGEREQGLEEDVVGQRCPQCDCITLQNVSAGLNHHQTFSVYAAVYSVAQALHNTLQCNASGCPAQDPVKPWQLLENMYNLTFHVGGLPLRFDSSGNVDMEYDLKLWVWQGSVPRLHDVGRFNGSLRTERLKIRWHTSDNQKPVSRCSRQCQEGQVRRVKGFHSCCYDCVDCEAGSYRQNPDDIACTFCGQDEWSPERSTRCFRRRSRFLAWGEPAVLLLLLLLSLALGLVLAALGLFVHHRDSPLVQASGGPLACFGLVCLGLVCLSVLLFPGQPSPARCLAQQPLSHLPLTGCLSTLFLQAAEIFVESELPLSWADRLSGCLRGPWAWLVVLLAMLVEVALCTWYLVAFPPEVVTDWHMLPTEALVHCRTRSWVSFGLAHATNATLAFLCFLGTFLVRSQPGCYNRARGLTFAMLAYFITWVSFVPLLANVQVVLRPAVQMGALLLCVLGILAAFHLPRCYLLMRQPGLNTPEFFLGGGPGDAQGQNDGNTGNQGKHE
Details: for sensitivity of the assay to initiate receptor internalisation: comparison among the sweet compounds tested; for increase of chemiluminescence signal / internalisation response with concentration: shape of dose-response curve, Fig. 6A and 6B

[1] = Clone #1057 cells, % (w/v), Fig. 6
[2] = Clone #1057 cells, 3 h at 20°C, n=3, Fig. 6

From the text: Binding of beta-arrestin will then stimulate receptor internalisation to the endosome, bringing the EA (enzyme part fused to beta-arrestin) and ProLink (enzyme part fused to the endosome) enzyme parts of beta-gal in close proximity to each other, enabling the formation of a functional beta-gal enzyme. The level of functional beta-Gal formed is a measure for ligand-induced receptor internalisation activity and is quantified by lysing cells using the PathHunter™ substrate mix, allowing the conversion of substrate to chemiluminescence.
PathHunter™HEK293 Active Internalisation Parental cells (HEK-293 cells natively expressing the sweet taste receptor and comprising the enzyme complementation system) were maintained in high glucose Dulbecco's modified Eagle's medium (4.5 g/l D-glucose, L-glutamine, HEPES) supplemented with 10% fetal bovine serum (DMEM-HG) at 37°C, 5% CO2 and 90% humidity.
For the beta-arrestin mediated internalization assay cells were grown and maintained in DMEM-HG. […] After 18 h of glucose starvation, cells were seeded in DMEM-LG at a density of 2.5×10^4 cells per well in a clear Poly-D-Lysine coated 96-well plate (CellCoat; Greiner Bio-One GmbH, Frickenhausen, Germany) and incubated for 24 h. Next, the PathHunter™ Detection assay kit was used for receptor stimulation according to the manufacturer's instructions. […] After 3 h of incubation at 20°C, the stimulant was removed and PathHunter™ substrate was added in 100 µl CP10 Cell Plating Reagents. Luminescence was measured using an Infinite F200 (Tecan Group Ltd., Männedorf, Switzerland). Analysis was performed in triplicates (n=3). Data are presented as the mean luminescence change (ΔF) over the base-line level (F): ΔF/F = (F(stimulant)−F(negativecontrol))/F(negativecontrol).

SMILES	concentration at which the maximum response (ΔF/Fmax) was reached [1] [%]	sensitivity of the assay to initiate receptor internalisation (Fig. 6)	increase of chemiluminescence signal / internalisation response with concentration	other results
OC[C@H]1O[C@H](O[C@]2(CCl)O[C@H](CCl)[C@@H](O)[C@@H]2O)[C@H](O)[C@@H](O)[C@H]1Cl [sucralose]	15	high sensitivity	–	concentration at which receptor internalisation responses were initiated (Clone #1057 cells, Fig. 6): already observed at the lowest concentration tested
OC[C@H]1O[C@@](CO)(O[C@H]2O[C@H](CO)[C@@H](O)[C@H](O)[C@H]2O)[C@@H](O)[C@@H]1O [sucrose]	–	–	rather slow increase	–
O=C(CO)[C@@H](O)[C@H](O)[C@H](O)CO [fructose]	9	highest sensitivity	rather slow increase	maximum level of chemiluminescence (ΔF/Fmax) (human, hek293 cells, 3 h): 5.2
OC[C@@H](O)[C@@H](O)[C@H](O)[C@H](O)CO [mannitol]	7.7	–	–	maximum level of chemiluminescence (ΔF/Fmax) [2]: nearly equal
OC[C@@H](O)[C@@H](O[C@H]1O[C@H](CO)[C@@H](O)[C@H](O)[C@H]1O)[C@H](O)[C@@H](O)CO [maltitol]	17.0	–	–	maximum level of chemiluminescence (ΔF/Fmax) [2]: nearly equal
OC[C@H]1O[C@H](O[C@H]2[C@H](O)[C@@H](O)[C@H](O)O[C@@H]2CO)[C@H](O)[C@@H](O)[C@@H]1O [maltose]	16.5	lowest sensitivity of the natural sugars tested	steep increase	–
CC1=CC(=O)NS(=O)(=O)O1 [acesulfame-K]	–	–	–	concentration at which the maximum response (ΔF/Fmax) was reached: 5.5%
